Measurements as given in PMC5942814 (PLoS ONE, 2018).
Where “and” joins values, the source holds several entries; their conditions need not be identical. Identical values can stand only once. Entries after “also recorded” stand apart in the source; their conditions may differ.

Legend:
[1] = Pharmacokinetics of SNF472 administered as an i.v. bolus; format: in vivo, Wistar rats; conditions: for C0: rat plasma phytate, extrapolated concentration at time 0
Protocol: Blood was collected at 5, 15, 60 and 120 min.
(§1) Due to the limitations in obtaining many sequential blood samples from rats, blood samples were only acquired from each animal at three of the nine time-points. Consequently, the area under the curves (AUCs) could not be determined for individual animals and mean AUCs were therefore used to assess dose linearity.
(§2) Following sampling, blood was collected into K3EDTA anticoagulant tubes, centrifuged at 3,500 rpm for 10 min at 4 °C and stored at -80°C pending quantification via UPLC®-MS using the method described by Tur et al.

[2] = Pharmacokinetics of SNF472 administered as a s.c. bolus; format: in vivo, Wistar rats; conditions: rat
Protocol: as §1, §2

[3] = Pharmacokinetics of SNF472 via 4 h i.v. infusion in control rats; format: in vivo, Wistar rats; conditions: for AUC(0→t) / Cmax: Day 1 (control) rats
Protocol: (§3) The experiment was performed based on a model described by Terai and co-workers[27]. Uremia was induced in 10 male Wistar rats weighing ± 275 g via 10 daily oral administrations of 600 mg/kg adenine (days 1–10). Two further oral doses of 300 ng/kg α-calcidol were administered on days 11 and 13.
as §1, §2

[4] = Pharmacokinetics of SNF472 via 4 h i.v. infusion in adenine-induced uremic rats; format: in vivo, Wistar rats; conditions: for AUC(0→t) / Cmax: Day 13 (uremic) rats
Protocol: as §3, §1, §2

[5] = system: vitamin D3-induced cardiovascular calcification; assay: Prevention of calcification induced by vitamin D; format: in vivo, Sprague Dawley rats
Protocol: Experiments were performed with 20 male Crl:OF Sprague Dawley rats weighing ± 350 g (Charles River Laboratories International, Inc. L’Arbresle, France). Animals were divided into four groups. […] Calcification was induced by 5 consecutive daily oral administrations of 75 kIU/kg vitamin D3 (Fort Dodge, Girona, Spain), starting on day 3 of treatment. Five sham-treated animals with no calcification induction served as controls. Rats were sacrificed 14 days after induction of calcification, and organs collected. Blood was obtained via heart puncture in anesthetized animals immediately before sacrifice.
(§4) Aorta and heart were removed at sacrifice, lyophilized for 24 h and weighed. Lyophilized organs were digested using a 1:1 HNO3:HClO4 mixture in a dry bath incubator for 2–4 h at 180°C and subsequently diluted with MilliQ™ water to a final volume of 10 ml. Calcium and phosphorus contents in serum, heart and aorta were quantified via inductively coupled plasma optical emission spectrometry (ICP-OES) (Perkin-Elmer SL, Optima 5300DV spectrometer)[26].

[6] = system: vitamin D3-induced cardiovascular calcification (progression); assay: Inhibition of calcification progression induced by vitamin D; format: in vivo, Sprague Dawley rats; conditions: 10 and 60 mg/kg s.c. daily
Protocol: Experiments were performed with 48 male Crl:OF Sprague Dawley rats weighing ± 250 g (Charles River Laboratories International, Inc. L’Arbresle, France) divided into 6 groups. Calcification was induced by 3 consecutive daily s.c. administrations of 100 kIU/kg vitamin D3 (Fort Dodge, Girona, Spain). Four groups were used as controls to evaluate calcification progression throughout the 14 days of study. The animals received daily s.c. injections of vehicle (NaCl 0.9%), starting 5 days after calcification induction. […] Group 1 animals were sacrificed on day 5 to evaluate calcification. Groups 2 and 3 were sacrificed on days 9 and 12, respectively, to follow the progression of calcification in control animals. Groups 4, 5 and 6 were sacrificed on day 14. Blood was obtained via heart puncture in anesthetized animals immediately before sacrifice.
as §4

[7] = system: cardiovascular calcification in adenine-induced uremic rats; assay: Inhibition of calcification in a rat model of uremia (adenine + α-calcidol); format: in vivo, Wistar rats
Protocol: as §2
All rats were treated daily with adenine (600 mg/kg, suspended in 1% carboxymethyl cellulose, administered orally) for the first 10 days to induce uremia and α-calcidol (300 ng/kg in olive oil, administered orally) three times a week from days 11 to 19 to accelerate and homogenize the development of cardiovascular calcification. On day 19, all surviving animals were sacrificed and blood and tissue samples collected. Blood was obtained via heart puncture in anesthetized animals immediately before sacrifice.
as §4, with “Lyophilized” for “Aorta and heart were removed at sacrifice, lyophilized for 24 h and weighed. Lyophilized”
Alkaline phosphatase (ALP) activity (ref. OSR6103), and creatinine (OSR6178) and urea (ref. OSR6134) levels were determined in serum using the Beckman Coulter assay kit (Brea, CA, USA).

[8] = single i.v. bolus 10 mg/kg, rat
[9] = 4 h i.v. infusion 10 mg/kg, uremic rats
[10] = 1 mg/kg i.v. every other day (e.o.d.)
[11] = 50 mg/kg 4 h i.v. infusion daily, uremic rats

## O=P([O-])(O)OC1C(OP(=O)([O-])O)C(OP(=O)([O-])O)C(OP(=O)([O-])O)C(OP(=O)([O-])O)C1OP(=O)([O-])O.[Na+].[Na+].[Na+].[Na+].[Na+].[Na+] (centres unmarked) [SNF472, hexasodium salt of myo-inositol hexaphosphate]
[1]; single i.v. bolus 1 mg/kg, rat
  AUC(0→t): 3491 ng·h/mL
  Cl: 4.83 mL/min/kg
  MRT (0→∞): 99 min
[1]; single i.v. bolus 1 mg/kg
  C0: 36775 ng/mL
[1]; single i.v. bolus 5 mg/kg, rat
  AUC(0→t): 19234 ng·h/mL
  MRT (0→∞): 19.8 min
[1]; single i.v. bolus 5 mg/kg
  C0: 84561 ng/mL
[1]; [8]
  AUC(0→t): 38752 ng·h/mL
  MRT (0→∞): 11.4 min
[1]; single i.v. bolus 10 mg/kg
  C0: 156750 ng/mL
[2]; single s.c. bolus 10 mg/kg
  AUC(0→t): 1633 ng·h/mL
  Cl/F: 3.67 mL/min/kg
  Cmax: 4876 ng/mL
  MRT (0→∞): 28.2 min
[2]; single s.c. bolus 30 mg/kg
  AUC(0→t): 32646 ng·h/mL
  Cl/F: 4.5 mL/min/kg
  Cmax: 61014 ng/mL
  MRT (0→∞): 28.8 min
[2]; single s.c. bolus 100 mg/kg
  AUC(0→t): 139603 ng·h/mL
  Cl/F: 3.5 mL/min/kg
  Cmax: 263264 ng/mL
  MRT (0→∞): 29.4 min
[3]; 4 h i.v. infusion 10 mg/kg
  AUC(0→t): 16027 ng·h/mL
[3]; 4 h i.v. infusion 10 mg/kg, maximum at 240 min
  Cmax: 5548 ng/mL
[3]; 4 h i.v. infusion 10 mg/kg, control rats
  steady state during the infusion period: steady state was not achieved
[3]; 4 h i.v. infusion 50 mg/kg
  AUC(0→t): 145212 ng·h/mL
  Cmax: 45141 ng/mL
[3]; 4 h i.v. infusion 50 mg/kg, control rats
  time at which steady state was reached: 60 min
[4]; 4 h i.v. infusion 10 mg/kg
  AUC(0→t): 3877 ng·h/mL
[4]; 4 h i.v. infusion 10 mg/kg, level at 240 min
  Cmax: 1877 ng/mL
[4]; [9]
  time at which low-level steady state was observed: 60 min
  time at which maximum levels were reached: ≤ 30 min
[4]; 4 h i.v. infusion 50 mg/kg
  AUC(0→t): 51665 ng·h/mL
  Cmax: 16218 ng/mL
[5]; 1 mg/kg i.v. daily
  inhibition of aorta calcium vs vehicle: 60%
  inhibition of heart calcium vs vehicle: 74% and 74.4%
[5]; 1 mg/kg i.v. daily, control 14.75 mg/dL, significantly increased
  serum phosphorus: 18.96 mg/dL
[5]; 1 mg/kg i.v. daily, vitamin D3 75 kIU/kg p.o. x5, vehicle 3.35 mg/g
  mean heart calcium content: 1.06 mg/g
[5]; 1 mg/kg i.v. daily, vitamin D3 75 kIU/kg p.o. x5, vehicle 91.1 mg/g
  mean aortic calcium content: 36.8 mg/g
[5]; 1 mg/kg i.v. daily, vs sham (8.72 mg/dL) and vitamin D control (10.50 mg/dL)
  serum calcium: statistically significant higher levels than sham and control groups
[5]; [10]
  inhibition of aorta calcium vs vehicle: 56.2%
  inhibition of heart calcium vs vehicle: 70.4%
[5]; non-uremic rats, vitamin D3 model
  inhibition of CVC in non-uremic rats: 60–70%
[6]
  serum calcium levels: not significantly affected
  serum phosphorus levels on day 14 vs control: No differences
[6]; started 5 days after calcification induction
  progression of cardiac calcification: completely blocked; also recorded: completely inhibited further progression
[7]; 50 mg/kg 4 h i.v. infusion daily, 12 uremic rats per group, 4 died in control group
  mortality (animals died): 7 animals
[7]; [11]
  inhibition of development of calcification in aorta: up to 80%
  mortality vs control group: no significant differences
  serum creatinine vs control: No significant differences
  serum urea vs control: No significant differences
[7]; 50 mg/kg 4 h i.v. infusion daily, uremic rats, control 17.6 mg/dL, not significant
  circulating (serum) phosphorus: 19.9 mg/dL
[7]; 50 mg/kg 4 h i.v. infusion daily, uremic rats, control 295 U/L, not significant
  mean serum ALP activity: 725 U/L
[7]; 50 mg/kg 4 h i.v. infusion daily, uremic rats, control median 1.6 mg/g
  median heart calcium content: 0.2 mg/g
[7]; 50 mg/kg 4 h i.v. infusion daily, uremic rats, control median 65.0 mg/g
  median aorta calcium content: 12.8 mg/g
[7]; 50 mg/kg 4 h i.v. infusion daily, uremic rats, significant vs control
  reduction in serum calcium levels: 17%
[7]; 50 mg/kg 4 h i.v. infusion, uremic rats
  signs of hypocalcemia (dyspnea, muscle spasms, convulsions): no signs of hypocalcemia
[7]; non-uremic animals (day 0), end of 4 h i.v. infusion 50 mg/kg
  circulating phytate levels: ~ 150,000 ng/mL
[7]; uremic animals, during and after 4 h of SNF472 infusion
  decrease in circulating phytate: 90%
